The assay has as its target T1, hCRTH2 receptor (Homo sapiens, UniProt Q9Y5Y4).
T1 construct: expressed in transfected cells; host or cells: HEK293
T1 sequence (Q9Y5Y4 1-395): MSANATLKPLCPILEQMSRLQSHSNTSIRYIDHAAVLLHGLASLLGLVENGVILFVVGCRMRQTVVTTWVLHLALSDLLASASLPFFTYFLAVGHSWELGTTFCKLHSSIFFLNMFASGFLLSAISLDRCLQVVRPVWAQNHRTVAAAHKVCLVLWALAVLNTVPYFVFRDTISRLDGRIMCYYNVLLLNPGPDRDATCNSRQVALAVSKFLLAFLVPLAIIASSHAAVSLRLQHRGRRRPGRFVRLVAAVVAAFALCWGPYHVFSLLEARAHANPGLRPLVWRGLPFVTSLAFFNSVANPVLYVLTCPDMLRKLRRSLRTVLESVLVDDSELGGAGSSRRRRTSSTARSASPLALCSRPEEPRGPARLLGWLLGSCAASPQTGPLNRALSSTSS
The assay can be described thus: Radioligand displacement assay (3H-PGD2) on hCRTH2 receptor membranes. Format: binding. As to conditions: antagonistic activity; 3H-PGD2 displacement on HEK293-hCRTH2 membrane fragments. (In general: In a radioligand displacement assay an active substance lowers the binding of a labelled ligand.)

The values below come from patent US8575158B2, “1-phenyl-substituted heterocyclyl derivatives and their use as prostaglandin D2 receptor modulators” (Actelion Pharmaceuticals Ltd., priority 2010, dated 2013).

Usually IC50 stands for the point on the concentration scale where inhibition reaches its midpoint. Low readings indicate inhibition by little substance, high ones a need for much substance. Turning to `O=C(O)COc1ccc(Cl)cc1C1c2ccccc2CCN1C(=O)COCc1ccccc1` (racemic) [Example 105, (±)-{2-[2-(2-Benzyloxy-acetyl)-1,2,3,4-tetrahydro-isoquinolin-1-yl]-4-chloro-phenoxy}-acetic acid], the half-inhibitory concentration (IC50) worked out at 9.95 nM.

With `O=C(O)COc1ccc(Cl)cc1C1c2ccccc2CCN1C(=O)COCc1ccccc1Cl` (racemic) [Example 106, (±)-(4-Chloro-2-{2-[2-(2-chloro-benzyloxy)-acetyl]-1,2,3,4-tetrahydro-isoquinolin-1-yl}-phenoxy)-acetic acid], the IC50 was found to be 4.06 nM.

The molecule `O=C(O)COc1ccc(Cl)cc1C1c2ccccc2CCN1C(=O)CCCc1ccccc1` (racemic) [Example 107, (±)-{4-Chloro-2-[2-(4-phenyl-butyryl)-1,2,3,4-tetrahydro-isoquinolin-1-yl]-phenoxy}-acetic acid] returned a half-inhibitory concentration (IC50) of 20.6 nM.

For `O=C(O)COc1ccc(Cl)cc1C1c2ccccc2CCN1C(=O)CCCc1cccc(F)c1` (racemic) [Example 108, (±)-(4-Chloro-2-{2-[4-(3-fluoro-phenyl)-butyryl]-1,2,3,4-tetrahydro-isoquinolin-1-yl}-phenoxy)-acetic acid], the IC50 worked out at 35.9 nM.

Consider `O=C(O)COc1ccc(Cl)cc1C1c2ccccc2CCN1C(=O)CCCc1cccc(Cl)c1Cl` (racemic) [Example 109, (±)-(4-Chloro-2-{2-[4-(2,3-dichloro-phenyl)-butyryl]-1,2,3,4-tetrahydro-isoquinolin-1-yl}-phenoxy)-acetic acid], for which the concentration for half-maximal inhibition (IC50) is 16.9 nM.

On to `Cc1cccc(CCCC(=O)N2CCc3ccccc3C2c2cc(Cl)ccc2OCC(=O)O)c1` (racemic) [Example 110, (±)-{4-Chloro-2-[2-(4-m-tolyl-butyryl)-1,2,3,4-tetrahydro-isoquinolin-1-yl]-phenoxy}-acetic acid], for which the half-inhibitory concentration (IC50) turned out to be 41.2 nM.

With `Cc1ccccc1CCCC(=O)N1CCc2ccccc2C1c1cc(Cl)ccc1OCC(=O)O` (racemic) [Example 111, (±)-{4-Chloro-2-[2-(4-o-tolyl-butyryl)-1,2,3,4-tetrahydro-isoquinolin-1-yl]-phenoxy}-acetic acid], the IC50 turned out to be 45 nM.

The molecule `O=C(O)COc1ccc(Cl)cc1C1c2ccccc2CCN1C(=O)CCCc1cccc(Cl)c1` (racemic) [Example 112, (±)-(4-Chloro-2-{2-[4-(3-chloro-phenyl)-butyryl]-1,2,3,4-tetrahydro-isoquinolin-1-yl}-phenoxy)-acetic acid] gave an IC50 of 23.4 nM.

`O=C(O)COc1ccc(Cl)cc1C1c2ccccc2CCN1C(=O)CCCc1ccccc1Cl` (racemic) [Example 113, (±)-(4-Chloro-2-{2-[4-(2-chloro-phenyl)-butyryl]-1,2,3,4-tetrahydro-isoquinolin-1-yl}-phenoxy)-acetic acid] registered an IC50 of 25.5 nM.

For `COc1cccc(CCCC(=O)N2CCc3ccccc3C2c2cc(Cl)ccc2OCC(=O)O)c1` (racemic) [Example 114, (±)-(4-Chloro-2-{2-[4-(3-methoxy-phenyl)-butyryl]-1,2,3,4-tetrahydro-isoquinolin-1-yl}-phenoxy)-acetic acid], the concentration for half-maximal inhibition (IC50) turned out to be 34.5 nM.

`O=C(O)COc1ccc(Cl)cc1C1c2ccccc2CCN1C(=O)CCCc1ccccc1F` (racemic) [Example 115, (±)-(4-Chloro-2-{2-[4-(2-fluoro-phenyl)-butyryl]-1,2,3,4-tetrahydro-isoquinolin-1-yl}-phenoxy)-acetic acid] returned an IC50 of 27 nM.

As for `O=C(O)COc1ccc(Cl)cc1C1c2ccccc2CCN1C(=O)[C@@H]1C[C@H]1c1ccccc1` (mixture of isomers) [Example 116, (±)-{4-Chloro-2-[2-(trans-2-phenyl-cyclopropanecarbonyl)-1,2,3,4-tetrahydro-isoquinolin-1-yl]-phenoxy}-acetic acid], the concentration for half-maximal inhibition (IC50) came to 5.42 nM.

In the case of `Cc1ccccc1CCC(=O)N1CCc2c(F)cccc2C1c1cc(Cl)ccc1OCC(=O)O` (racemic) [Example 118, (±)-{4-Chloro-2-[5-fluoro-2-(3-o-tolyl-propionyl)-1,2,3,4-tetrahydro-isoquinolin-1-yl]-phenoxy}-acetic acid], the concentration for half-maximal inhibition (IC50) is 95.4 nM.

The molecule `O=C(O)COc1ccc(Cl)cc1C1c2cccc(F)c2CCN1C(=O)COCc1ccccc1` (racemic) [Example 119, (±)-{2-[2-(2-Benzyloxy-acetyl)-5-fluoro-1,2,3,4-tetrahydro-isoquinolin-1-yl]-4-chloro-phenoxy}-acetic acid] gave a half-inhibitory concentration (IC50) of 30.9 nM.

`O=C(O)COc1ccc(Cl)cc1C1c2cccc(F)c2CCN1C(=O)COCc1ccccc1Cl` (racemic) [Example 120, (±)-(4-Chloro-2-{2-[2-(2-chloro-benzyloxy)-acetyl]-5-fluoro-1,2,3,4-tetrahydro-isoquinolin-1-yl}-phenoxy)-acetic acid] registered a half-inhibitory concentration (IC50) of 33.3 nM.

Molecule `O=C(O)COc1ccc(Cl)cc1C1c2cccc(F)c2CCN1C(=O)CCCc1ccccc1` (racemic) [Example 121, (±)-{4-Chloro-2-[5-fluoro-2-(4-phenyl-butyryl)-1,2,3,4-tetrahydro-isoquinolin-1-yl]-phenoxy}-acetic acid] showed an IC50 of 52.3 nM.

Molecule `O=C(O)COc1ccc(Cl)cc1C1c2cccc(F)c2CCN1C(=O)C#Cc1ccccc1` (racemic) [Example 122, (±)-{4-Chloro-2-[5-fluoro-2-(3-phenyl-propynoyl)-1,2,3,4-tetrahydro-isoquinolin-1-yl]-phenoxy}-acetic acid] showed an IC50 of 196 nM.

In the case of `O=C(O)COc1ccc(F)cc1C1c2ccccc2CCN1C(=O)CCc1ccccc1` (racemic) [Example 123, (±)-{4-Fluoro-2-[2-(3-phenyl-propionyl)-1,2,3,4-tetrahydro-isoquinolin-1-yl]-phenoxy}-acetic acid], the half-inhibitory concentration (IC50) was found to be 152 nM.

`O=C(O)COc1ccc(F)cc1C1c2ccccc2CCN1C(=O)Cc1ccccc1` (racemic) [Example 124, (±)-[4-Fluoro-2-(2-phenylacetyl-1,2,3,4-tetrahydro-isoquinolin-1-yl)-phenoxy]-acetic acid] returned an IC50 of 417 nM.

Take `O=C(O)COc1ccc(F)cc1C1c2ccccc2CCN1C(=O)COc1ccccc1` (racemic) [Example 125, (±)-{4-Fluoro-2-[2-(2-phenoxy-acetyl)-1,2,3,4-tetrahydro-isoquinolin-1-yl]-phenoxy}-acetic acid]: the IC50 came to 175 nM.

Take `O=C(O)COc1ccc(F)cc1C1c2ccccc2CCN1C(=O)COCc1ccccc1` (racemic) [Example 126, (±)-{2-[2-(2-Benzyloxy-acetyl)-1,2,3,4-tetrahydro-isoquinolin-1-yl]-4-fluoro-phenoxy}-acetic acid]: the IC50 turned out to be 20 nM.

On to `O=C(O)COc1ccc(F)cc1C1c2ccccc2CCN1C(=O)CCCc1ccccc1` (racemic) [Example 127, (±)-{4-Fluoro-2-[2-(4-phenyl-butyryl)-1,2,3,4-tetrahydro-isoquinolin-1-yl]-phenoxy}-acetic acid], for which the half-inhibitory concentration (IC50) worked out at 29 nM.

`COc1ccccc1CCC(=O)N1CCc2ccccc2C1c1cc(F)ccc1OCC(=O)O` (racemic) [Example 128, (±)-(4-Fluoro-2-{2-[3-(2-methoxy-phenyl)-propionyl]-1,2,3,4-tetrahydro-isoquinolin-1-yl}-phenoxy)-acetic acid] had an IC50 of 69 nM.

`COc1cccc(CCC(=O)N2CCc3ccccc3C2c2cc(F)ccc2OCC(=O)O)c1` (racemic) [Example 129, (±)-(4-Fluoro-2-{2-[3-(3-methoxy-phenyl)-propionyl]-1,2,3,4-tetrahydro-isoquinolin-1-yl}-phenoxy)-acetic acid] returned an IC50 of 280 nM.

`COc1ccc(CCC(=O)N2CCc3ccccc3C2c2cc(F)ccc2OCC(=O)O)cc1` (racemic) [Example 130, (±)-(4-Fluoro-2-{2-[3-(4-methoxy-phenyl)-propionyl]-1,2,3,4-tetrahydro-isoquinolin-1-yl}-phenoxy)-acetic acid] returned a 50% inhibitory concentration (IC50) of 270 nM.

Take `O=C(O)COc1ccc(F)cc1C1c2ccccc2CCN1C(=O)CCc1ccccc1Cl` (racemic) [Example 131, (±)-(2-{2-[3-(2-Chloro-phenyl)-propionyl]-1,2,3,4-tetrahydro-isoquinolin-1-yl}-4-fluoro-phenoxy)-acetic acid]: the IC50 is 48 nM.

Consider `O=C(O)COc1ccc(F)cc1C1c2ccccc2CCN1C(=O)CCc1cccc(Cl)c1` (racemic) [Example 132, (±)-(2-{2-[3-(3-Chloro-phenyl)-propionyl]-1,2,3,4-tetrahydro-isoquinolin-1-yl}-4-fluoro-phenoxy)-acetic acid], for which the concentration for half-maximal inhibition (IC50) was 86 nM.

As for `O=C(O)COc1ccc(F)cc1C1c2ccccc2CCN1C(=O)CCc1ccc(Cl)cc1` (racemic) [Example 133, (±)-(2-{2-[3-(4-Chloro-phenyl)-propionyl]-1,2,3,4-tetrahydro-isoquinolin-1-yl}-4-fluoro-phenoxy)-acetic acid], the concentration for half-maximal inhibition (IC50) was found to be 126 nM.

Take `Cc1ccccc1CCC(=O)N1CCc2ccccc2C1c1cc(F)ccc1OCC(=O)O` (racemic) [Example 134, (±)-{4-Fluoro-2-[2-(3-o-tolyl-propionyl)-1,2,3,4-tetrahydro-isoquinolin-1-yl]-phenoxy}-acetic acid]: the half-inhibitory concentration (IC50) came to 31 nM.

In turn, `O=C(O)COc1ccc(F)cc1C1c2ccccc2CCN1C(=O)Cc1ccc2ccccc2c1` (racemic) [Example 135, (±)-{4-Fluoro-2-[2-(2-naphthalen-2-yl-acetyl)-1,2,3,4-tetrahydro-isoquinolin-1-yl]-phenoxy}-acetic acid] gave an IC50 of 42.2 nM.

Molecule `Cc1ccccc1OCC(=O)N1CCc2ccccc2C1c1cc(F)ccc1OCC(=O)O` (racemic) [Example 136, (±)-{4-Fluoro-2-[2-(2-o-tolyloxy-acetyl)-1,2,3,4-tetrahydro-isoquinolin-1-yl]-phenoxy}-acetic acid] returned a half-inhibitory concentration (IC50) of 119 nM.
